In ChEMBL document CHEMBL1201862, “PubChem BioAssay data set” (2004):
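96-well plates; 48 h exposure; 5 concentrations. Endpoints by linear interpolation between flanking doses. Not reached: highest tested concentration assigned. GI50 marks 50% less growth.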 Calls of active or inactive are those of the source. Cut-off read from the data, not from the text of the source: active = GI50 up to about 1.1 µM and inactive = higher.

Columns and labels:
Assay in all cases: NCI tumour cell line growth inhibition, 48 h
NCI-H226 = test system: NCI-H226
OVCAR-4 = test system: OVCAR-4
MOLT-4 = test system: MOLT-4
LXFL 529 = test system: LXFL 529
SK-OV-3 = test system: SK-OV-3
SF-295 = test system: SF-295
SF-268 = test system: SF-268
UACC-62 = test system: UACC-62
ACHN = test system: ACHN
KM12 = test system: KM12
RPMI-8226 = test system: RPMI-8226
RXF 393 = test system: RXF 393
M19-MEL = test system: M19-MEL
SNB-19 = test system: SNB-19
SK-MEL-28 = test system: SK-MEL-28
COLO 205 = test system: COLO 205
CCRF-CEM = test system: CCRF-CEM
UO-31 = test system: UO-31
LOX IMVI = test system: LOX IMVI
NCI-H23 = test system: NCI-H23
HCT-116 = test system: HCT-116
OVCAR-5 = test system: OVCAR-5
SK-MEL-5 = test system: SK-MEL-5
DLD-1 = test system: DLD-1
EKVX = test system: EKVX
IGROV-1 = test system: IGROV-1
TK-10 = test system: TK-10
HL-60 = test system: HL-60
SW-620 = test system: SW-620
M14 = test system: M14
A549 = test system: A549
DMS-114 = test system: DMS-114
SNB-78 = test system: SNB-78
HOP-18 = test system: HOP-18
HT-29 = test system: HT-29
HOP-92 = test system: HOP-92
HCC 2998 = test system: HCC 2998
SNB-75 = test system: SNB-75
K562 = test system: K562
SR = test system: SR
UACC-257 = test system: UACC-257
786-0 = test system: 786-0
NCI-H522 = test system: NCI-H522
OVCAR-8 = test system: OVCAR-8
OVCAR-3 = test system: OVCAR-3
KM-20L2 = test system: KM-20L2
Malme-3M = test system: Malme-3M
SN12C = test system: SN12C
HOP-62 = test system: HOP-62
A498 = test system: A498
CAKI-1 = test system: CAKI-1
SF-539 = test system: SF-539
SK-MEL-2 = test system: SK-MEL-2
DMS-273 = test system: DMS-273
HCT-15 = test system: HCT-15
NCI-H460 = test system: NCI-H460
U-251 = test system: U-251

## COc1ccc(-c2cc(O)c3cc(OC)ccc3n2)cc1
NCI-H226
  GI50: > 100 µM (inactive)
OVCAR-4
  GI50: > 100 µM (inactive)
MOLT-4
  GI50: > 100 µM (inactive)
LXFL 529
  GI50: > 100 µM (inactive)
SK-OV-3
  GI50: > 100 µM (inactive)
SF-295
  GI50: > 100 µM (inactive)
SF-268
  GI50: 36.6 µM (inactive)
UACC-62
  GI50: > 100 µM (inactive)
ACHN
  GI50: > 100 µM (inactive)
KM12
  GI50: > 100 µM (inactive)
RPMI-8226
  GI50: > 100 µM (inactive)
RXF 393
  GI50: > 100 µM (inactive)
M19-MEL
  GI50: > 100 µM (inactive)
SNB-19
  GI50: > 100 µM (inactive)
SK-MEL-28
  GI50: > 100 µM (inactive)
COLO 205
  GI50: > 100 µM (inactive)
CCRF-CEM
  GI50: > 100 µM (inactive)
UO-31
  GI50: > 100 µM (inactive)
LOX IMVI
  GI50: > 100 µM (inactive)
NCI-H23
  GI50: > 100 µM (inactive)
HCT-116
  GI50: > 100 µM (inactive)
OVCAR-5
  GI50: > 100 µM (inactive)
SK-MEL-5
  GI50: > 100 µM (inactive)
DLD-1
  GI50: > 100 µM (inactive)
EKVX
  GI50: > 100 µM (inactive)
IGROV-1
  GI50: > 100 µM (inactive)
TK-10
  GI50: > 100 µM (inactive)
HL-60
  GI50: > 100 µM (inactive)
SW-620
  GI50: > 100 µM (inactive)
M14
  GI50: > 100 µM (inactive)
A549
  GI50: > 100 µM (inactive)
DMS-114
  GI50: > 100 µM (inactive)
SNB-78
  GI50: > 100 µM (inactive)
HOP-18
  GI50: > 100 µM (inactive)
HT-29
  GI50: > 100 µM (inactive)
HOP-92
  GI50: > 100 µM (inactive)
HCC 2998
  GI50: 5.74 µM (inactive)
SNB-75
  GI50: 92.9 µM (inactive)
K562
  GI50: > 100 µM (inactive)
SR
  GI50: > 100 µM (inactive)
UACC-257
  GI50: > 100 µM (inactive)
786-0
  GI50: > 100 µM (inactive)
NCI-H522
  GI50: > 100 µM (inactive)
OVCAR-8
  GI50: > 100 µM (inactive)
OVCAR-3
  GI50: > 100 µM (inactive)
KM-20L2
  GI50: > 100 µM (inactive)
Malme-3M
  GI50: > 100 µM (inactive)
SN12C
  GI50: > 100 µM (inactive)
HOP-62
  GI50: > 100 µM (inactive)

## O=[N+]([O-])c1cc([N+](=O)[O-])c(/C=C/c2ccc(Cl)c(Cl)c2)cc1/C=C/c1ccc(Cl)c(Cl)c1
A498
  GI50: > 100 µM (inactive)
NCI-H226
  GI50: 24.6 µM (inactive)
OVCAR-4
  GI50: 38.7 µM (inactive)
MOLT-4
  GI50: 23.2 µM (inactive)
LXFL 529
  GI50: 23.6 µM (inactive)
SK-OV-3
  GI50: 64.6 µM (inactive)
SF-295
  GI50: 25.6 µM (inactive)
SF-268
  GI50: 25.8 µM (inactive)
CAKI-1
  GI50: 31.4 µM (inactive)
UACC-62
  GI50: 27.5 µM (inactive)
ACHN
  GI50: 22.5 µM (inactive)
KM12
  GI50: 18.5 µM (inactive)
RPMI-8226
  GI50: 19.3 µM (inactive)
RXF 393
  GI50: 20.8 µM (inactive)
M19-MEL
  GI50: 21.4 µM (inactive)
SNB-19
  GI50: 25.6 µM (inactive)
SK-MEL-28
  GI50: 26.5 µM (inactive)
SF-539
  GI50: 21.9 µM (inactive)
COLO 205
  GI50: 18.7 µM (inactive)
CCRF-CEM
  GI50: 21.7 µM (inactive)
UO-31
  GI50: 17.5 µM (inactive)
LOX IMVI
  GI50: 23.7 µM (inactive)
NCI-H23
  GI50: 20.4 µM (inactive)
OVCAR-5
  GI50: 36.1 µM (inactive)
SK-MEL-5
  GI50: 18.9 µM (inactive)
SK-MEL-2
  GI50: 24.4 µM (inactive)
EKVX
  GI50: 44.1 µM (inactive)
DMS-273
  GI50: 28.4 µM (inactive)
IGROV-1
  GI50: 22.9 µM (inactive)
TK-10
  GI50: 52.5 µM (inactive)
HL-60
  GI50: 22.2 µM (inactive)
SW-620
  GI50: 28.2 µM (inactive)
M14
  GI50: 23.1 µM (inactive)
A549
  GI50: 41.3 µM (inactive)
HCT-15
  GI50: 21.2 µM
DMS-114
  GI50: 24.5 µM (inactive)
SNB-78
  GI50: 47.4 µM (inactive)
HT-29
  GI50: 28.1 µM (inactive)
HCC 2998
  GI50: 30.3 µM (inactive)
SNB-75
  GI50: 29 µM (inactive)
K562
  GI50: 27.7 µM (inactive)
UACC-257
  GI50: 23.4 µM (inactive)
NCI-H460
  GI50: 30.4 µM (inactive)
786-0
  GI50: 24.7 µM (inactive)
NCI-H522
  GI50: 21.5 µM (inactive)
OVCAR-8
  GI50: 29.2 µM (inactive)
OVCAR-3
  GI50: 17.5 µM (inactive)
KM-20L2
  GI50: 31 µM (inactive)
U-251
  GI50: 33 µM (inactive)
Malme-3M
  GI50: 25.2 µM (inactive)
SN12C
  GI50: 21.2 µM (inactive)

## COc1ccc(/C(=C/n2ccnc2)C(O)c2ccc(OC)c(OC)c2)cc1OC (stereo unspecified)
A498
  GI50: 68.9 µM (inactive)
NCI-H226
  GI50: > 100 µM (inactive)
OVCAR-4
  GI50: > 100 µM (inactive)
MOLT-4
  GI50: > 100 µM (inactive)
SK-OV-3
  GI50: > 100 µM (inactive)
SF-295
  GI50: > 100 µM (inactive)
SF-268
  GI50: > 100 µM (inactive)
KM12
  GI50: > 100 µM (inactive)
RPMI-8226
  GI50: 70.6 µM (inactive)
RXF 393
  GI50: 33.3 µM (inactive)
M19-MEL
  GI50: > 100 µM (inactive)
SNB-19
  GI50: > 100 µM (inactive)
SK-MEL-28
  GI50: > 100 µM (inactive)
SF-539
  GI50: 78 µM (inactive)
COLO 205
  GI50: > 100 µM (inactive)
CCRF-CEM
  GI50: 26.7 µM (inactive)
UO-31
  GI50: > 100 µM (inactive)
LOX IMVI
  GI50: > 100 µM (inactive)
NCI-H23
  GI50: > 100 µM (inactive)
OVCAR-5
  GI50: > 100 µM (inactive)
SK-MEL-2
  GI50: > 100 µM (inactive)
DLD-1
  GI50: > 100 µM (inactive)
DMS-273
  GI50: > 100 µM (inactive)
IGROV-1
  GI50: > 100 µM (inactive)
TK-10
  GI50: > 100 µM (inactive)
HL-60
  GI50: 28.8 µM (inactive)
SW-620
  GI50: > 100 µM (inactive)
M14
  GI50: > 100 µM (inactive)
HCT-15
  GI50: > 100 µM
HOP-18
  GI50: > 100 µM (inactive)
HT-29
  GI50: > 100 µM (inactive)
HOP-92
  GI50: 30.6 µM (inactive)
SNB-75
  GI50: 51.9 µM (inactive)
K562
  GI50: 37.2 µM (inactive)
SR
  GI50: 12.3 µM (inactive)
UACC-257
  GI50: > 100 µM (inactive)
NCI-H460
  GI50: 71.6 µM (inactive)
786-0
  GI50: > 100 µM (inactive)
OVCAR-8
  GI50: > 100 µM (inactive)
OVCAR-3
  GI50: > 100 µM (inactive)
KM-20L2
  GI50: > 100 µM (inactive)
U-251
  GI50: > 100 µM (inactive)
SN12C
  GI50: > 100 µM (inactive)
HOP-62
  GI50: > 100 µM (inactive)

## COc1ccc(/C=C/CN(C)CCc2ccccc2)cc1OC
NCI-H226
  GI50: > 100 µM (inactive)
MOLT-4
  GI50: 40.6 µM (inactive)
LXFL 529
  GI50: 62.1 µM (inactive)
SF-295
  GI50: 53.5 µM (inactive)
SF-268
  GI50: > 100 µM (inactive)
UACC-62
  GI50: > 100 µM (inactive)
ACHN
  GI50: > 100 µM (inactive)
KM12
  GI50: > 100 µM (inactive)
RPMI-8226
  GI50: 59.3 µM (inactive)
RXF 393
  GI50: 51.2 µM (inactive)
M19-MEL
  GI50: > 100 µM (inactive)
SNB-19
  GI50: > 100 µM (inactive)
SK-MEL-28
  GI50: > 100 µM (inactive)
COLO 205
  GI50: 52 µM (inactive)
UO-31
  GI50: 22.9 µM (inactive)
NCI-H23
  GI50: > 100 µM (inactive)
HCT-116
  GI50: 26.4 µM (inactive)
OVCAR-5
  GI50: 41.1 µM (inactive)
SK-MEL-5
  GI50: 59.2 µM (inactive)
SK-MEL-2
  GI50: > 100 µM (inactive)
EKVX
  GI50: > 100 µM (inactive)
DMS-273
  GI50: > 100 µM (inactive)
IGROV-1
  GI50: > 100 µM (inactive)
TK-10
  GI50: 46 µM (inactive)
SW-620
  GI50: 97.3 µM (inactive)
A549
  GI50: > 100 µM (inactive)
HCT-15
  GI50: > 100 µM
DMS-114
  GI50: 77.4 µM (inactive)
SNB-78
  GI50: > 100 µM (inactive)
HT-29
  GI50: 33.5 µM (inactive)
HOP-92
  GI50: 4.89 µM (inactive)
HCC 2998
  GI50: 32.1 µM (inactive)
SNB-75
  GI50: 25.9 µM (inactive)
K562
  GI50: 26.5 µM (inactive)
UACC-257
  GI50: 36.1 µM (inactive)
786-0
  GI50: > 100 µM (inactive)
OVCAR-8
  GI50: > 100 µM (inactive)
OVCAR-3
  GI50: 73.3 µM (inactive)
KM-20L2
  GI50: 42.3 µM (inactive)
U-251
  GI50: 86.9 µM (inactive)
Malme-3M
  GI50: 62.4 µM (inactive)
SN12C
  GI50: 66.1 µM (inactive)
